{"source": "paper PMC4637315", "about": "“Hydroxycarboxylic acid receptors are essential for breast cancer cells to control their lipid/fatty acid metabolism” (Oncotarget, 2015)", "format_in_all_cases": "cell-based", "key": {"HCA1 [1]": {"molecular_target": "T1, HCA1 (Homo sapiens, UniProt Q9BXC0)", "T1 construct": "gene HCAR1; endogenous receptor in BT-474 cells", "T1 sequence (Q9BXC0 whole entry)": "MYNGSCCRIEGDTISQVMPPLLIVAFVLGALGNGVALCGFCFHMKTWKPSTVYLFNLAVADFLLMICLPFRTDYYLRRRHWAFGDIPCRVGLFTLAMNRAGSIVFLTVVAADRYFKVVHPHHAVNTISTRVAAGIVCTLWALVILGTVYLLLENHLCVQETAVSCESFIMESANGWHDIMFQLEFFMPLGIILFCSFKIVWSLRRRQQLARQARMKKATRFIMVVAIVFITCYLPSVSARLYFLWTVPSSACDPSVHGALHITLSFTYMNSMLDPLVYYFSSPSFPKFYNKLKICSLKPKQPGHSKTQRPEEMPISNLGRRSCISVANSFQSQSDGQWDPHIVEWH", "test": "AlphaScreen cAMP assay, inhibition of forskolin-induced cAMP in BT-474 cells, pertussis toxin sensitive"}, "HCA3 [2]": {"molecular_target": "T2, HCA3 (Homo sapiens, UniProt P49019)", "T2 construct": "gene HCAR3; endogenous receptor in BT-474 cells", "T2 sequence (P49019 whole entry)": "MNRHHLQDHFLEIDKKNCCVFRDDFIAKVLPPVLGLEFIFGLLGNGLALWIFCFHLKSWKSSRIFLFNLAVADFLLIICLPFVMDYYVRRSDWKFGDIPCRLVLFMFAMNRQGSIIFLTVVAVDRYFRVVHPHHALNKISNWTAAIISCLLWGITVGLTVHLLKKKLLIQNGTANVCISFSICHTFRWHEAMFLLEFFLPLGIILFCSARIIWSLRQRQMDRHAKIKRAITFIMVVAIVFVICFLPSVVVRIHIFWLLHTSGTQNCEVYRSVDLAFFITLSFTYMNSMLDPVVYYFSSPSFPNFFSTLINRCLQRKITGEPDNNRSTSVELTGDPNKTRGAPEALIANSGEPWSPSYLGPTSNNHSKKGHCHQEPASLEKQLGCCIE", "test": "AlphaScreen cAMP assay, inhibition of forskolin-induced cAMP in BT-474 cells, pertussis toxin sensitive"}, "HCA2": {"molecular_target": "T3, HCA2 (Homo sapiens, UniProt Q8TDS4)", "T3 construct": "gene HCAR2; endogenous receptor in BT-474 cells", "T3 sequence (Q8TDS4 whole entry)": "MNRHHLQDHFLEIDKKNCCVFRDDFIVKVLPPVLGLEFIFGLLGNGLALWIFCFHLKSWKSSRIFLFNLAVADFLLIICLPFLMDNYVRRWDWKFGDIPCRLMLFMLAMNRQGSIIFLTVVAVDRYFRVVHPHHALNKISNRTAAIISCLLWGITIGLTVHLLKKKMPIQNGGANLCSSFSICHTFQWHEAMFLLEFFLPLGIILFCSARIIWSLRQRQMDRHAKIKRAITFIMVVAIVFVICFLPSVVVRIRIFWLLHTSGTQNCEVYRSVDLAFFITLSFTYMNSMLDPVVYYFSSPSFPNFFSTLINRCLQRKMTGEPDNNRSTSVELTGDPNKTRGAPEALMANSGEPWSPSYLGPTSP", "test": "AlphaScreen cAMP assay, inhibition of forskolin-induced cAMP in BT-474 cells, pertussis toxin sensitive"}, "HCA1 [3]": {"molecular_target": "T1, HCA1", "test": "cAMP decrease in BT-474 cells, blocked by pertussis toxin"}, "HCA3 [4]": {"molecular_target": "T2, HCA3", "test": "cAMP decrease in BT-474 cells, blocked by pertussis toxin"}}, "data": [{"smiles": "C[C@H](O)C(=O)O", "note": "[lactate]", "values": [{"measurement": "EC50", "setting": "HCA1 [1]", "result": 3400, "unit": "µM"}]}, {"smiles": "CCCCCC(O)CC(=O)O", "note": "(centres unmarked) [3HO, 3-hydroxyoctanoate]", "values": [{"measurement": "EC50", "setting": "HCA3 [2]", "result": 9.5, "unit": "µM"}]}, {"smiles": "CC(O)CC(=O)O", "note": "(centres unmarked) [3HB, 3-hydroxybutyrate]", "values": [{"measurement": "EC50", "setting": "HCA2", "result": 460, "unit": "µM"}]}, {"smiles": "O=C(O)c1cc(O)cc(O)c1", "note": "[3,5 DHB, 3,5-dihydroxybenzoic acid]", "values": [{"measurement": "cAMP decrease in BT-474 cells, blocked by pertussis toxin", "setting": "HCA1 [3]", "result": "synthetic HCA agonist-induced decrease in intracellular cAMP levels in BT-474 cells (Figure 3D-F)"}]}, {"smiles": "CC(C)n1nnc2cc(C(=O)O)ccc21", "note": "[IPBT-5CA, 1-(1-methylethyl)-1H-benzotriazole-5-carboxylic acid]", "values": [{"measurement": "cAMP decrease in BT-474 cells, blocked by pertussis toxin", "setting": "HCA3 [4]", "result": "synthetic HCA agonist-induced decrease in intracellular cAMP levels in BT-474 cells (Figure 3D-F)"}]}]}
